Here are results for 16 molecules from US20130029970A1 (priority 2009, published 2013).

Like-named read-outs stand apart in the source and are kept apart here. A value given as a limit tells only on which side of the number the result lay.

For assay [1], the system named is PBQ-induced writhing in the mouse. The assay can be described thus: Phenylbenzoquinone-induced (PBQ) writhing model.
For a further assay, the target named is T1, human CB2 (hCB2) (Homo sapiens, UniProt P34972).
T1 construct: (cDNA clone) CNR0200000
Briefly: 35S GTPγS binding assay, hCB2 agonist. Type of assay: biochemical. The essentials: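 Membranes (5 μg) from cells transfected with hCB2 cDNA in pcDNA3.1+ incubated with SPA beads, 0.1 nM [35S]GTPγS and 20 uM GDP in 50 mM HEPES pH 7.4, 100 mM NaCl, 5 mM MgCl2, 0.001% saponin, ± test compound. Incubation 90 min at room temperature; bound label read by scintillation counting.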

The target in assay [2] is T2, recombinant human cannabinoid receptor CB1 (Homo sapiens, UniProt P21554).
T2 construct: (cDNA clone) CNR01L000
The assay can be described thus: Cannabinoid receptor radioligand binding assay, [3H]-CP 55,940 displacement, hCB1. The procedure, abridged:
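Membranes from HEK-293 cells stably expressing human CB1, 2-10 μg protein, incubated 90 min at room temperature with 0.5 nM [3H]-CP 55,940 in Tris-HCl pH 7.5, MgCl2, EDTA and 0.1% fatty-acid-free BSA. Bound radioactivity counted after rapid filtration; nonspecific binding defined with 1 μM unlabeled CP 55,940.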

The next assay has as its target T3, human CB1 (hCB1) (Homo sapiens, UniProt P21554).
T3 construct: (cDNA clone) CNR01L000
Briefly: 35S GTPγS binding assay, hCB1 agonist. Conditions: GTPγS agonist, HEK-293 membranes; read-out: hCB1 EC50 (GTPyS ag). Type of assay: biochemical. The text has this: cDNA expression clones for human CB1 (hCB1, Genbank Accession No. AY225225) and human CB2 (hCB2, Genbank Accession No. AY242132) expressed in vector pcDNA3.1+ were purchased from UMR cDNA Resource Center, Rolla, Mo. (Clone ID CNR01L000 for hCB1; CNR0200000 for hCB2).
Stable, HEK-293-derived cell lines that recombinantly express hCBI or hCB2 were established. In brief, the clone hCB1 (CNR IL) or hCB2 (CNR2) was transfected into human embryonic kidney cells (HEK-293) using Lipofectamine 2000 (Gibco, Cat#11668-019) according to the manufacturer's protocol. Transfected clones were isolated by single colony purification and clones were screened for receptor expression using a whole cell, ^3H—CP 55,940 radioligand binding assay. HEK-293 stable cells were maintained in Dulbecco's modified Eagles medium (DMEM) containing 10% fetal bovine serum, 2 mM L-glutamine and 0.5 mg/mL G-418.
Membranes were isolated from transfected cells as follows. Monolayers of cultured cells were washed twice with phosphate-buffered saline (PBS). Cells were scraped into 20 mM HEPES, pH 7.4, 10 mM EDTA containing complete cocktail protease inhibitors (Roche, Catalog #11 697 498 001) and were homogenized by an electric-powered mechanical probe homogenizer (Omni GLH; probe G7-195S) for 40 seconds at 7000 rpm. Homogenates were centrifuged 10 minutes at 1000×g at 4° C. The supernatant was collected and was centrifuged for 1 hour at 40,000×g. The supernatant was then decanted and the resulting pellet was re-suspended in 20 mM HEPES, pH 7.4, 5 mM MgCl2, 1 mM EDTA, 10% sucrose with complete cocktail protease inhibitors. Protein concentration of membrane suspensions were measured by Bradford Protein Assay using bovine serum albumin as the standard (BioRad catalog #500-0006). Protein concentrations of membrane suspensions were adjusted with the final buffer in the range of 5 to 10 mg/mL and were stored at −80° C. until further use.
Functional assays which monitor G-protein coupled receptor or downstream cellular responses can be used to characterize potential CB1 receptor and/or CB2 receptor agonist or antagonist activities. Direct activation (or inhibition of activation) can be monitored using a GTPγS assay (membrane-based assay) or cAMP assay (whole cell-based assay).
^35S GTPγS binding assays were performed by incubating recombinant cell membranes prepared above (5 μg) in the presence of scintillation proximity assay beads (SPA beads, Catalog #RPNQ0252 GE Healthcare, Buckinghamshire, England) in GTPγS binding buffer [50 mM HEPES (pH 7.4), 100 mM NaCl, 5 mM MgCl2, 0.001% saponin (Sigma catalog #S4521)] supplemented with 20 uM GDP (Sigma catalog #G7127) in the presence or absence of test compound. The reaction was carried out in 96-well microplates with 0.1 nM [^35S]GTPγS (specific activity=1250 Ci/mmol; Perkin Elmer catalog #NEG030X250UC) in a final volume of 100 uL. After a 90 min room temperature incubation, the reaction was analyzed using a scintillation counter (Perkin Elmer Microbeta instrument). Binding data were analyzed using GraphPad Prism.

For another assay, the target named is T4, human CB1 receptors (Homo sapiens, UniProt P21554).
T4 construct: (cDNA clone) CNR01L000
The assay can be described thus: cAMP assay in HEK-293 cells, hCB1 agonist. Type of assay: cell-based. Conditions: inhibition of forskolin-stimulated cAMP, HEK-293 cells. The essentials: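 Stable hCB1 HEK-293 cells suspended in HBSS with 10 mM HEPES and 0.1% fatty acid-free BSA, incubated 30 min at 37° C. with compound plus forskolin (90 uM in the 3× compound solution). Lysed cAMP measured by enzyme-fragment kit; EC50 = 50% inhibition of forskolin-stimulated cAMP (forskolin maximum = 100%), sigmoidal fit.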
For orientation: cAMP levels reflect the balance of adenylyl cyclase and phosphodiesterase activity.

For the next assay, the target named is T5, human CB2 receptors (Homo sapiens, UniProt P34972).
T5 construct: (cDNA clone) CNR0200000
The assay can be described thus: cAMP assay in HEK-293 cells, hCB2 agonist. The assay is classed as cell-based. The procedure, abridged: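 HEK-293 cells stably expressing human CB2, suspended at 1,500,000 cells/mL in HBSS with 10 mM HEPES and 0.1% fatty-acid-free BSA, exposed to test compound plus forskolin (90 uM in the 3× compound solution) for 30 min at 37° C.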

For assay [3], the target named is T6, recombinant human cannabinoid receptor CB2 (Homo sapiens, UniProt P34972).
T6 construct: (cDNA clone) CNR0200000
Briefly: Cannabinoid receptor radioligand binding assay, [3H]-CP 55,940 displacement, hCB2. The procedure, abridged: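 Membranes from hCB2-transfected cells, prepared by 1000×g then 40,000×g centrifugation, resuspended in 20 mM HEPES pH 7.4, 5 mM MgCl2, 1 mM EDTA, 10% sucrose.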

The mark [4] stands for this setting: GTPγS agonist, HEK-293 membranes, read-out: hCB2 EC50 (GTPyS ag).
[5] abbreviates: inhibition of forskolin-stimulated cAMP, HEK-293 cells, read-out: hCB2 EC50 (cAMP ag).
Where [6] appears, read: inhibition of forskolin-stimulated cAMP, HEK-293 cells.

T5 sequence (P34972 whole entry): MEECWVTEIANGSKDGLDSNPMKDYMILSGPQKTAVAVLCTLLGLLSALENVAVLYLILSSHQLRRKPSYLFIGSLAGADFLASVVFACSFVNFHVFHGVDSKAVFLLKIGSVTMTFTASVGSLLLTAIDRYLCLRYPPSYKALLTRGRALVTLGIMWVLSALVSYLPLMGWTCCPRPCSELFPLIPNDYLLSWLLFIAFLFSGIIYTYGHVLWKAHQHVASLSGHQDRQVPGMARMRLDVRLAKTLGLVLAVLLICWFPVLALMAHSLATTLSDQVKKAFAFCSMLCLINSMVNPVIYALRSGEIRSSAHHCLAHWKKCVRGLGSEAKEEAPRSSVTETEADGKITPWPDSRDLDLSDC
T1 sequence (P34972 whole entry): as above
T2 sequence (P21554 whole entry): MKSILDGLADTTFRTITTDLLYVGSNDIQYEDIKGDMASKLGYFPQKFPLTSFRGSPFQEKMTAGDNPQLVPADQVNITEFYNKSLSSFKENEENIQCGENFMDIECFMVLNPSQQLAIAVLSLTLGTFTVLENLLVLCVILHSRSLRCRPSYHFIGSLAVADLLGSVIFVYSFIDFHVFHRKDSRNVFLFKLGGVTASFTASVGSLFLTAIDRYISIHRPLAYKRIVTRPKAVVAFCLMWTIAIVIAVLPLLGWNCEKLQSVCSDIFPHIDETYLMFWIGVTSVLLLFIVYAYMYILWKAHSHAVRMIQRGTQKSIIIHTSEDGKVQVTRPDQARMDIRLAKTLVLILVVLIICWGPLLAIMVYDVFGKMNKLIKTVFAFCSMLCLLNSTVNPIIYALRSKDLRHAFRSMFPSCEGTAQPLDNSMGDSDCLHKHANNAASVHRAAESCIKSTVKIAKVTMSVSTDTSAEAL
T3 sequence (P21554 whole entry): as above
T4 sequence (P21554 whole entry): as above
T6 sequence (P34972 whole entry): as the sequence (P34972 whole entry) above

With `CCS(=O)(=O)n1c(C)cc2cc(C(=O)c3cccnc3Cl)sc21` [Compound I-43], the “Number of Writhes” value in assay [1] (Dose 30, PO) is given as 13.8 ± 1.88.

On to `COc1ccc(C(=O)c2cc3cc(C)n(CCN4CC5CC4CO5)c3s2)cn1` (stereo not shown) [Compound 169, (6-(2-(2-oxa-5-azabicyclo[2.2.1]heptan-5-yl)ethyl)-5-methyl-6H-thieno[2,3-b]pyrrol-2-yl)(6-methoxypyridin-3-yl)methanone], for which the figures for the EC50 at human CB2 (hCB2) (setting [4]) and on human CB1 (hCB1) were 1 to 10 µM and above 10 µM, respectively. Moreover, the 50% inhibitory concentration (IC50) in assay [2] is 0.1 to 1 µM. Further, the “hCB1 EC50 (cAMP ag, nM)” value on human CB1 receptors is listed as “NS (NS means “Not Significant,” which means less than 30% agonist activity when compared to the positive control.)”.

Turning to `COc1ccc(C(=O)c2cc3cc(C)n(CC4CCOCC4)c3s2)cn1` [Compound I-144], the “Number of Writhes” value in assay [1] (Dose 3, PO) is 5.04 ± 1.8; in assay [1] (Dose 10, PO), 3.24 ± 1.08; in assay [1] (Dose 30, PO) it was 1.8 ± 0.72.

On to `COc1ccc(C(=O)c2cc3cc(C)n(CC4CCCCO4)c3s2)cn1` (stereo not shown) [Compound 173, (6-methoxypyridin-3-yl)(5-methyl-6-((tetrahydro-2H-pyran-2-yl)methyl)-6H-thieno[2,3-b]pyrrol-2-yl)methanone], for which the EC50 at human CB2 (hCB2) is 0.1 to 1 µM; on human CB1 (hCB1) it was 1 to 10 µM; on human CB2 receptors, below 0.1 µM. Moreover, in assay [2], the IC50 is below 0.1 µM.

Turning to `COc1ccc(C(=O)c2cc3cc(C)n(CCN4CCC(F)(F)CC4)c3s2)cn1` [Compound 152, (6-(2-(4,4-difluoropiperidin-1-yl)ethyl)-5-methyl-6H-thieno[2,3-b]pyrrol-2-yl)(6-methoxypyridin-3-yl)methanone], the EC50 is below 0.1 µM at human CB2 (hCB2) (setting [4]), 1 to 10 µM at human CB1 (hCB1) and below 0.1 µM at human CB2 receptors (setting [5]). Further, the half-inhibitory concentration (IC50) in assay [2] is below 0.1 µM.

On to `COc1ccc(C(=O)c2cc3cc(C)n(CCCNS(=O)(=O)C(F)(F)F)c3s2)cc1` [Compound 154, 1,1,1-trifluoro-N-(3-(2-(4-methoxybenzoyl)-5-methyl-6H-thieno[2,3-b]pyrrol-6-yl)propyl)methanesulfonamide], for which the EC50 at human CB2 (hCB2) is 1 to 10 µM; at human CB1 (hCB1), above 10 µM; at human CB2 receptors, 0.1 to 1 µM. Also, the half-maximal inhibitory concentration (IC50) in assay [2] worked out at 0.158 µM.

Take `Cc1cc2cc(C(=O)c3ccccn3)sc2n1CCN1CCOCC1` [Compound I-16]: the “Number of Writhes” value in assay [1] (Dose 30, IP) is given as 10.0 ± 2.76.

Consider `Cc1cc2cc(C(=O)c3cccc(Cl)c3Cl)sc2n1CCCNS(C)(=O)=O` [Compound I-37], for which the “Number of Writhes” value in assay [1] (Dose 30, PO) came out at 13.0 ± 1.65.

In the case of `Cc1cc2cc(C(=O)c3ccc(Cl)cc3Cl)sc2n1CCN1CCOCC1` [Compound I-10], the “Number of Writhes” value in assay [1] (Dose 30, PO) was found to be 3.7 ± 0.7.

For `COc1ccc(C(=O)c2cc3cc(C)n(CC(=O)O)c3s2)c(F)c1` [Compound 176, 2-(2-(2-fluoro-4-methoxybenzoyl)-5-methyl-6H-thieno[2,3-b]pyrrol-6-yl)acetic acid], the EC50 is above 10 µM on human CB2 (hCB2) (setting [4]), above 10 µM at human CB1 (hCB1) and below 0.1 µM at human CB2 receptors (setting [5]). In addition, the “hCB1 EC50 (cAMP ag, nM)” value at human CB1 receptors is on record as “NS (NS means “Not Significant,” which means less than 30% agonist activity when compared to the positive control.)”.

In the case of `COc1ccc(C(=O)c2cc3cc(C)n(CC4COCCO4)c3s2)cn1` (stereo not shown) [Compound 177, (6((1,4-dioxan-2-yl)methyl)-5-methyl-6H-thieno[2,3-b]pyrrol-2-yl)(6-methoxypyridin-3-yl)methanone], the EC50 was 1 to 10 µM at human CB2 (hCB2), above 10 µM at human CB1 (hCB1) and 1 to 10 µM at human CB2 receptors. Besides, on human CB1 receptors, the “hCB1 EC50 (cAMP ag, nM)” value is “NS (NS means “Not Significant,” which means less than 30% agonist activity when compared to the positive control.)”.

In the case of `COc1cc(F)c(C(=O)c2cc3cc(C)n(CC4CCOCC4)c3s2)c(F)c1` [Compound 180, (2,6-difluoro-4-methoxyphenyl)(5-methyl-6-((tetrahydro-2H-pyran-4-yl)methyl)-6H-thieno[2,3-b]pyrrol-2-yl)methanone], the EC50 is below 0.1 µM at human CB2 (hCB2), 1 to 10 µM on human CB1 (hCB1) and below 0.1 µM on human CB2 receptors. Besides, the IC50 in assay [2] was 0.1 to 1 µM.

Turning to `COc1ccc(C(=O)c2cc3cc(C)n(CC(=O)O)c3s2)cn1` [Compound 166, 2-(2-(6-methoxynicotinoyl)-5-methyl-6H-thieno[2,3-b]pyrrol-6-yl)acetic acid], the half-maximal effective concentration (EC50) at human CB2 (hCB2) (setting [4]) and at human CB1 (hCB1) was above 10 µM in each case. Moreover, the “hCB1 EC50 (cAMP ag, nM)” value on human CB1 receptors is “NS (NS means “Not Significant,” which means less than 30% agonist activity when compared to the positive control.)”. The “hCB2 EC50 (cAMP ag, nM)” value on human CB2 receptors (setting [6]) is “NS (NS means “Not Significant,” which means less than 30% agonist activity when compared to the positive control.)”.

Regarding `COc1ccc(C(=O)c2cc3cc(C)n(CCN4CCOC(C)(C)C4)c3s2)cn1` [Compound 162, (6-(2-(2,2-dimethylmorpholino)ethyl)-5-methyl-6H-thieno[2,3-b]pyrrol-2-yl)(6-methoxypyridin-3-yl)methanone], the concentration for a half-maximal effect (EC50) on human CB2 (hCB2) (setting [4]) is above 10 µM; on human CB1 (hCB1) it was above 10 µM; at human CB2 receptors (setting [5]), 0.1 to 1 µM. Also, the “hCB1 EC50 (cAMP ag, nM)” value on human CB1 receptors is “NS (NS means “Not Significant,” which means less than 30% agonist activity when compared to the positive control.)”.

With `COc1ccc(C(=O)c2cc3cc(C)n(CC4CCSCC4)c3s2)cn1` [Compound 175, (6-methoxypyridin-3-yl)(5-methyl-6-((tetrahydro-2H-thiopyran-4-yl)methyl)-6H-thieno[2,3-b]pyrrol-2-yl)methanone], the EC50 at human CB2 (hCB2) is below 0.1 µM; at human CB1 (hCB1), 0.1 to 1 µM; on human CB2 receptors, below 0.1 µM. The IC50 was below 0.1 µM in assay [2] and 1 to 10 µM in assay [3].

Consider `COc1ccc(C(=O)c2cc3cc(C)n(CC4CCNCC4)c3s2)cn1` [Compound 172, (6-methoxypyridin-3-yl)(5-methyl-6-(piperidin-4-ylmethyl)-6H-thieno[2,3-b]pyrrol-2-yl)methanone], for which the EC50 at human CB2 (hCB2) (setting [4]) and at human CB1 (hCB1) was above 10 µM throughout. Also, the “hCB1 EC50 (cAMP ag, nM)” value at human CB1 receptors is on record as “NS (NS means “Not Significant,” which means less than 30% agonist activity when compared to the positive control.)”. Moreover, on human CB2 receptors (setting [6]), the “hCB2 EC50 (cAMP ag, nM)” value is recorded as “NS (NS means “Not Significant,” which means less than 30% agonist activity when compared to the positive control.)”.

The term EC50 denotes the concentration giving half of the maximal effect. The IC50 is the point on the concentration scale where inhibition reaches its midpoint.
